Among the data in patent US12674026B2, “Process for preparing polyol-based esters of acyl-capped hydroxy carboxylic acids” (KetoLipix Therapeutics GmbH, priority 2019, dated 2026) are cleavage by pancreatin and duration of ketosis values, retold here.

The test system of data set [1] is pancreatin. How it is done: Both media are from the company Biorelevant®, Ltd. in Great Britain. In addition, in some experiments porcine pancreas is added (Panzytrat® 40,000, Fa. Allergan).
The pancreatin is used in the form of the commercially available product Panzytrat® 40,000 from the Allergan company. The whole mixture is stirred on a hotplate at 50° C.; the course of the reaction is determined and followed by continuous recording of the acid number over time.

For data set [2] the following is noted: even if several grams are taken; cited from earlier work.

As for “3-acetylacetobutyric acid di-diglycerol ester [3-acetylaceto-BHB di-diglycerol ester]”, the cleavage by pancreatin result in data set [1] is on record as “cleaved by pancreatin”.
For “3-acetylacetobutyric acid mono-diglycerol ester [3-acetylaceto-BHB mono-diglycerol ester]”, the cleavage by pancreatin result in data set [1] is “cleaved by pancreatin”.
As for “3-acetylacetobutyric acid tri-diglycerol ester [3-acetylaceto-BHB tri-diglycerol ester]”, the cleavage by pancreatin entry in data set [1] is listed as “cleaved by pancreatin”.
Consider `CC(O)CC(=O)O` (stereo not shown) [3-hydroxybutyric acid], for which the duration of ketosis result in data set [2] is listed as “three to four”.
